In paper PMC10584170, “Machine learning-based phenotypic imaging to characterise the targetable biology of Plasmodium falciparum male gametocytes for the development of transmission-blocking antimalarials” (PLOS Pathogens, 2023):
Where two headings read alike, the source gives them in different places.

Assays:
[1] = system: P. falciparum male gametocytes; experiment: P. falciparum Dual Gamete Formation Assay (PfDGFA), male readout (exflagellation); assay type: cell-based, Plasmodium falciparum NF54; settings: for Selectivity Ratio M: HepG2 Tox50 versus male IC50; for Average inhibition male (%) / % inhibition male (individual replicates) R1 / % inhibition male (individual replicates) R3 / % inhibition male (individual replicates) R4 / inhibition at 2 µM: PfDGFA at 2µM, 24h preincubation with gametocytes; for IC50: PfDGFA, 24 h incubation with gametocytes before induction, exflagellation readout, read-out: Male IC50; for HitlevelM: number of replicates with >50% inhibition in the male readout, 2µM
Summary of the method: (§1)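 Male and female gamete formation were quantified by microscopy image analysis following 24 h incubation of mature NF54 gametocytes with compound and activation at 28°C with xanthurenic acid.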

[2] = system: P. falciparum female gametocytes; experiment: P. falciparum Dual Gamete Formation Assay (PfDGFA), female readout (Pfs25-positive female gametes); assay type: cell-based, Plasmodium falciparum NF54; settings: for Selectivity ratio F: HepG2 Tox50 versus female IC50; for Average inhibition female (%) / % inhibition female (individual replicates) R1 / % inhibition female (individual replicates) R3 / % inhibition female (individual replicates) R4 / inhibition at 2 µM: PfDGFA at 2µM, 24h preincubation with gametocytes; for IC50: PfDGFA, 24 h incubation with gametocytes before induction, female gamete readout, read-out: Female IC50; for HitlevelF: number of replicates with >50% inhibition in the female readout, 2µM
Summary of the method: as §1

[3] = system: HepG2 cells; experiment: HepG2 cytotoxicity counter-screen; settings: cytotoxic activity against HepG2 cells

Row | SMILES | Selectivity Ratio M [1] | Average inhibition male (%) ([1]; average of replicates) | % inhibition male (individual replicates) R1 ([1]; replicate R1) [%] | % inhibition male (individual replicates) R3 ([1]; replicate R3) [%] | % inhibition male (individual replicates) R4 ([1]; replicate R4) [%] | IC50 [1] [nM] | HitlevelM [1] | Selectivity ratio F [2] | Average inhibition female (%) ([2]; average of replicates) | % inhibition female (individual replicates) R1 ([2]; replicate R1) [%] | % inhibition female (individual replicates) R3 ([2]; replicate R3) [%] | % inhibition female (individual replicates) R4 ([2]; replicate R4) [%] | IC50 [2] [nM] | HitlevelF [2] | Tox50 [3] [µM] | other results
1 | COc1cccc(CCc2c(CCNCCCCCCNCCc3ccccc3)ccc(OC)c2OC)c1.Cl [TCMDC-132105] | 2.34 | 79.5 | 90.7 | 81.0 | 99.1 | 1200 | 3 | 4.54 | 52.1 | 47.4 | 59.7 | 72.0 | 620 | 2 | 2.82 | –
2 | COc1ccc(CNC2CCN(C)CC2)cc1-c1ccc(S(=O)(=O)NCc2ccccc2)s1.O=C(O)C(F)(F)F [TCMDC-132253] | 3.9 | 82.6 | 86.4 | 70.7 | 89.6 | 1390 | 4 | 1.37 | 28.1 | 31.4 | 13.9 | 24.4 | 3960 | 0 | 5.43 | –
3 | COc1ccc(CNC2CCN(C)CC2)cc1-c1ccc(S(=O)(=O)NCc2ccccc2)c(F)c1.O=C(O)C(F)(F)F [TCMDC-132262] | 1.94 | 74.3 | 68.8 | – | 79.4 | 1850 | 3 | 0.84 | 25.6 | 21.9 | 30.7 | 17.0 | 4280 | 0 | 3.59 | –
4 | O=C(c1ccc(-c2cnc3[nH]cc(-c4ccc(C(=O)N5CCOCC5)cc4)c3c2)cc1)N1CCOCC1 [TCMDC-132781] | 66.32 | – | – | – | – | – | 4 | 2.9 | – | – | – | – | – | 0 | 28.99 | inhibition at 2 µM ([1]; Plasmodium falciparum, average of replicates, read-out: Average inhibition male (%)): 77%; inhibition at 2 µM ([1]; Plasmodium falciparum, replicate R1, read-out: % inhibition male (individual replicates) R1): 90.7%; inhibition at 2 µM ([1]; Plasmodium falciparum, replicate R2, read-out: % inhibition male (individual replicates) R2): 89.1%; inhibition at 2 µM ([1]; Plasmodium falciparum, replicate R3, read-out: % inhibition male (individual replicates) R3): 77.8%; inhibition at 2 µM ([1]; Plasmodium falciparum, replicate R4, read-out: % inhibition male (individual replicates) R4): 50.2%; IC50 ([1]; Plasmodium falciparum): 440 nM; inhibition at 2 µM ([2]; Plasmodium falciparum, average of replicates, read-out: Average inhibition female (%)): 9.1%; inhibition at 2 µM ([2]; Plasmodium falciparum, replicate R1, read-out: % inhibition female (individual replicates) R1): 7.2%; inhibition at 2 µM ([2]; Plasmodium falciparum, replicate R2, read-out: % inhibition female (individual replicates) R2): 16.3%; inhibition at 2 µM ([2]; Plasmodium falciparum, replicate R3, read-out: % inhibition female (individual replicates) R3): 1.6%; inhibition at 2 µM ([2]; Plasmodium falciparum, replicate R4, read-out: % inhibition female (individual replicates) R4): 11.4%; IC50 ([2]; Plasmodium falciparum): > 10000 nM
5 | CNCCNCc1ccc(-c2ccc(-c3nc4cccc(C)c4[nH]3)cc2)cc1.O=C(O)C(F)(F)F [TCMDC-132837] | 7.9 | 81.2 | 79.2 | 67.7 | 94.2 | 1670 | 4 | 1.52 | 30.6 | 20.0 | 47.7 | 20.5 | 8690 | 0 | 13.18 | –
